Test results from patent US11685726B2, “Pharmaceutical compositions of 6-(2-(2H-tetrazol-5-yl)ethyl)-6-fluorodecahydroisoquinoline-3-carboxylic acid and ester derivatives thereof” (Sea Pharmaceuticals LLC, priority 2020, dated 2023).

Legend:
AMPA receptor = experiment: Whole cell patch-clamp recording of s-AMPA induced currents in pyramidal neurons of rat brain prefrontal cortex slices; type: cell-based; settings: 20 μM s-AMPA, rat brain cortex slices
Protocol: Additionally biological activity of compounds as antagonists of AMPA receptors or NMDA receptors (also called ionotropic glutamate-gated ion channels) were conducted using ex vivo functional electrophysiological assays of pyramidal neurons in slices of rat brain prefrontal cortex. Effects of test compounds cf. reference compounds were studied by whole cell patch-clamp electrophysiology recordings of s-AMPA-induced currents or NMDA-induced currents, respectively, using rat brain slice prefrontal cortex (layer V) pyramidal neurons.
Male Sprague Dawley rats were supplied by Charles River Laboratories (Wilmington, Mass. USA) and were housed 4 per cage within a temperature (20.5-23.5° C.) and humidity (30-80%) controlled environment on a 12 hour light/dark cycle with access to food (Teklad Global Soy Protein, Cat. No. T.2920X10, Envigo, Indianapolis, Ind., USA) and water ad libitum. At 4-6 weeks of age rats were terminally anaesthetized using isofluorane [(1-chloro-2,2,2-trifluoroethyl difluoromethyl ether) supplied by Baxter Healthcare Corp, Deerfield, Ill., USA], and decapitated. The brain was removed and 300 μm thick coronal prefrontal cortex (PFC) or sagittal hippocampal slices were sectioned using a Vibratome microtome. After brain removal, and throughout slicing, the tissue was submerged in ice cold […] cerebrospinal fluid (aCSF). Once slices were cut, they were transferred to a beaker containing aCSF and left at room temperature for a minimum of 1 hour before commencing electrophysiological recordings. After this period, individual slices were transferred to a recording chamber continuously perfused with aCSF at a rate of 4-6 mL/min before commencing experiment protocols. aCSF composition (in mM): NaCl, 127; KCl, 1.9; KH2PO4, 1.2; CaCl2), 2.4; MgCl2, 1.3; NaHCO3, 26; D-glucose, 10; in water equilibrated with 95% Oxygen gas-5% CO2 gas (reagent suppliers listed below). Experiments investigating NMDA currents had aCSF supplemented with 10 μM glycine (reagents suppliers listed below). All experiments were conducted following protocols with the approval of an Institutional Animal Care and Use Committee (IACUC).
Whole cell patch-clamp recordings were performed from Layer V prefrontal cortex pyramidal neurons at room temperature using the ‘visualized’ version of the patch-clamp technique. […]
All test compound experiments were carried out in the voltage-clamp recording configuration of the whole cell patch-clamp technique and all recordings performed at a holding potential of −60 mV. Recordings were monitored on a Dell personal computer (PC) running Axon pClamp software (Molecular Devices, Sunnyvale, Calif., USA) and digitized at 10 kHz. […]

[1] = Rat behavior observations for signs of motor impairment by trained observer; type: in vivo; settings: 6 mg/kg subcutaneous, rats, 30 minute observation period
Protocol: Rat behavior pharmacology observations for signs of motor impairment by trained observer. Rats were monitored after dosing for any signs of impairment by Compound 1 administered as 6 mg/kg dose by subcutaneous route.

[2] = Tested at 1 pM (so in the source)

| Structure (SMILES) | % inhibition +/- SEM of s-AMPA induced currents in neurons (AMPA receptor; [2]) | signs of motor impairment / tolerability or neurological changes [1] | % inhibition +/- SEM of s-AMPA induced currents in neurons (AMPA receptor; Tested at 10 pM (so in the source)) |
| --- | --- | --- | --- |
| O=C(O)[C@@H]1C[C@H]2CC(F)(CCc3nnn[nH]3)CC[C@H]2CN1 (stereo in doubt) [Compound 2, (3S,4aS,6R,8aR)-6-fluoro-6-[2-(1H-1,2,3,4-tetrazol-5-yl)ethyl]-decahydroisoquinoline-3-carboxylic acid] | 21.4 ± 2.1 (n = 3) % | – | – |
| O=C(O)[C@@H]1C[C@H]2C[C@@](F)(CCc3nnn[nH]3)CC[C@H]2CN1 [Compound 1, (3S,4aS,6S,8aR)-6-fluoro-6-[2-(1H-1,2,3,4-tetrazol-5-yl)ethyl]-decahydroisoquinoline-3-carboxylic acid] | 55.6 ± 5.8 (n = 3) % | No tolerability or neurological changes were observed | >90 (n = 1) % |
